{"source": "patent US20130165652A1", "about": "“NOVEL HETEROCYCLIC COMPOUND, AND COMPOSITION FOR TREATING INFLAMMATORY DISEASES USING SAME” (NEOPHARM CO.,LTD., priority 2010, published 2013)", "key": {"Cytotoxicity (CC50)": {"test": "Cytotoxicity (CC50)", "format": "cell-based"}, "PAR-2 [1]": {"biological_target": "T1, PAR-2 (Homo sapiens, UniProt P55085)", "T1 sequence (P55085 26-397)": "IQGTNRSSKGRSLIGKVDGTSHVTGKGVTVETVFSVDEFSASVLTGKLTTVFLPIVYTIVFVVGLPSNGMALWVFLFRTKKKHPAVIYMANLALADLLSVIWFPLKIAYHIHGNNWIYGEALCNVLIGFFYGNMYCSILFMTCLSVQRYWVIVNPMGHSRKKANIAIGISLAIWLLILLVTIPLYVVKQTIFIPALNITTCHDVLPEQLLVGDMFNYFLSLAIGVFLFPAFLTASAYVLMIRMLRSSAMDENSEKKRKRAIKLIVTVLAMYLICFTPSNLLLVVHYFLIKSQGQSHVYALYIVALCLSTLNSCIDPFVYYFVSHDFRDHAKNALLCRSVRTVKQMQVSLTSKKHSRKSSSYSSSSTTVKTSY", "test": "PathHunter β-arrestin GPCR assay", "format": "cell-based", "parameters": "purchased DiscoveRx Corp", "details": "β-arrestin accumulation; SKIGKV-NH2 (10 μM); samples 1000 to 50 μM", "experimental": "An in vitro assay protocol capable of detecting activation of the PAR-2 was additionally introduced in addition to a calcium immobilization assay to measure the activity of the selected materials. First, the PAR-2 inhibitory activities of two kinds of samples were measured using a PathHunter™ β-arrestin GPCR assay kit (DiscoveRx Corp.) capable of detecting accumulation of β-arrestin, which is an intracellular reaction firstly generated by the activation of the PAR-2. Experiments were conducted by diluting concentrations of the samples by one-half, ranging from 1000 to 50 μM and SKIGKV-NH2 (10 μM) was treated with the PAR-2 […]. As an experimental result, suppression of β-arrestin was confirmed in both of the two kinds of samples at a concentration of 500 μM. As a measurement result, it was observed that IC50 values were different from those in calcium immobilization assay (See Table 1)."}, "PAR-2 [2]": {"biological_target": "T1, PAR-2", "test": "Calcium immobilization assay (Calcium-4 assay kit)", "format": "cell-based", "details": "HCT-15 cells over-expressing PAR-2; activating peptide (AP) as PAR-2 activating agent; inhibitor treated for 5 minutes before AP", "experimental": "In order to evaluate inhibitory activity of the synthesized materials against the PAR-2, primarily, an assay system in which a concentration of calcium ions in cell may be measured in real time was constructed, and evaluation was conducted using this system. The PAR-2 is a kind of G-protein coupled receptors (GPCR), and when the PAR-2 is activated in cell, phospholipase C-b (PLC-b) decomposes phosphatidylinositol 4,5-bisphosphate (PIP2) into inositol triphosphate (IP3) and diacyl glycerol (DAG) while being activated. IP3 generated at this time stimulates secretion of calcium ions in endoplasmic reticulum (ER), which is a storage of calcium ions in a cell, such that the concentration of calcium ions in the cell is increased. Based on an existing study result, an in vitro screening assay system capable of detecting a material capable of suppressing the concentration of calcium ions in the cell from being increased by activation of PAR-2 was constructed. As a PAR-2 activating agent, activating peptide (AP) was used, and as a reagent for detecting the concentration of calcium ion in the cell, a Calcium-4 assay kit produced (Molecular Probe). […]\nThe inhibitory activity of the synthesized materials against the PAR-2 was evaluated using the protocol as described above, and profiles of the assay for Compounds 45 and 73 prepared in Examples 1 and 2 were shown in FIGS. 1 and 2."}, "PAR-2 [3]": {"biological_target": "T1, PAR-2", "test": "Confocal microscopy of PAR-2 activation in KNRK-PAR-2 cell line", "format": "cell-based", "details": "KNRK-PAR-2 cells; [trypsin]=11 μM, [SLIGKV]=100 μM, [Compound 45]=200 μM", "experimental": "In order to visually confirm the activation of the PAR-2, a cell line having the following structure was prepared based on existing references, and activation of the PAR-2 was observed using a confocal microscope. As the cell line, Kirsten Murine Sarcoma Virus transformed rat kidney epithelial cell (KNRK cell) was used. In this cell line, the PAR-2 may not be expressed in a normal state. Each of the N-terminals of […] were tagged with Flag epitope, and each of the C-terminals were tagged with Myc epitope, such that a stable transfected cell was constructed. […] In a state in which the PAR-2 was not activated, Flag and Myc were double stained, such that a yellow image was shown in a merged image. However, in the case in which the PAR-2 was activated, a red image was shown while the Flag is separated."}, "[4]": {"tested_on": "oxazolone induced chronic dermatitis", "test": "Oxazolone induced chronic dermatitis animal model", "format": "in vivo, hairless mouse (SKH-1)", "details": "hairless mice, applied once a day for 3 days", "experimental": "Effects of the selected materials were evaluated using chronic dermatitis animal model. Oxazolone induced chronic dermatitis animal model by continuously applying oxazolone, which is a kind of hapten, to a hairless mouse was used. It was reported that various symptoms of atopic dermatitis relatively accurately appear in recently developed oxazolone model, and the present inventors also confirmed through the prior study that various symptoms of general atopic dermatitis appear similarly to clinically appearing symptoms. In order to construct the chronic dermatitis animal model, 5% oxazolone was applied and sensitized to the hairless mice (SKH-1, 6 weeks old). After 1 week, 0.1% oxazolone was applied every other day for 2 weeks, thereby induced the symptoms of dermatitis. After samples were applied to the dermatitis induced animal once a day for 3 days, changes in various skin functions and a skin thickness were observed. Finally, biopsy was performed on skin tissue, and histological observation was conducted. As a positive control group used in the experiment, 0.05% desonide formulation, which is a steroid having relatively weak potency, was used, and changes in trans-epidermal water loss (TEWL) skin hydration in stratum cornea, and skin thickness were observed."}}, "data": [{"molecule": "Cc1nc2ccc(C(=O)N3CCN(C(=O)C4CCCCC4)CC3)cn2c1-c1ccccc1", "note": "[Compound 73, (4-(cyclohexanecarbonyl)piperazin-1-yl)(2-methyl-3-phenylimidazo[1,2-a]pyridin-6-yl)methanone]", "values": [{"measurement": "CC50", "setting": "Cytotoxicity (CC50)", "value": "> 100", "unit": "µM"}, {"measurement": "IC50", "setting": "PAR-2 [1]", "value": 401, "unit": "µM"}, {"measurement": "IC50", "setting": "PAR-2 [2]", "value": 76.7, "unit": "µM"}]}, {"molecule": "Cc1cccc(-c2c(C)nc3ccc(C(=O)N4CCCCC4)cn23)c1", "note": "[Compound 45]", "values": [{"measurement": "activation of the PAR-2 (Flag/Myc double staining, merged image)", "setting": "PAR-2 [3]", "value": "activation of the PAR-2 was suppressed"}, {"measurement": "trans-epidermal water loss (TEWL)", "setting": "[4]; FIG. 5", "value": "effectively restore"}, {"measurement": "skin hydration in stratum cornea", "setting": "[4]; FIG. 6", "value": "effectively restore"}, {"measurement": "skin thickness", "setting": "[4]; FIG. 7", "value": "statistically significant improvement effect"}, {"measurement": "CC50", "setting": "Cytotoxicity (CC50)", "value": "> 100", "unit": "µM"}, {"measurement": "IC50", "setting": "PAR-2 [1]", "value": 339, "unit": "µM"}, {"measurement": "IC50", "setting": "PAR-2 [2]", "value": 73.8, "unit": "µM"}]}]}
